In US9133183B2, “Imidazolidinones and analogs exhibiting anti-cancer and anti-proliferative activities” (Deciphera Pharmaceuticals, LLC, priority 2013, dated 2015) one finds tumor growth inhibition data, which are given here for one compound.

Molecules are shown by their SMILES.

In the assay the test system is MDA-MB-231-luc-D3H2LN human breast carcinoma xenograft. Put plainly: MDA-MB-231 xenograft study. Type of assay: in vivo, mouse. The following applies: orally dosed at 30 mg/kg twice daily. The procedure: MDA-MB-231 Xenograft Study
To evaluate the in vivo anti-cancer activity compounds of formula I, a MDA-MB-231-luc-D3H2LN human breast carcinoma xenograft was employed. Briefly, MDA-MB-231-luc-D3H2LN cells were obtained from Xenogen and expanded in Minimal Essential Media (MEM) with EBSS which was modified with 1% L-glutamine and supplemented with 10% FBS, 1% PSG, 1% non-essential amino acids, and 1% sodium pyruvate. The growth environment was maintained in an incubator with a 5% CO2 atmosphere at 37° C. Cells were harvested and re-suspended using 50% serum-free media and 50% Matrigel® to generate a stock concentration of 5×10^6 cells/mL.
Six to 7 week old female C.B-17/IcrHsd-PrkdcscidLystbg mice were injected with 200 μL of cell suspension subcutaneously, just below the right axilla. All procedures carried out in this experiment were conducted in compliance with all the laws, regulations and guidelines of the National Institutes of Health (NIH). Treatment began when the mean tumor burden was approximately 150 mg. All mice were dosed with test compound by oral gavage. Body weights and tumor measurements were recorded three times weekly. […] Images were analyzed using Living Image (Xenogen, Alameda, Calif.) software. […]

For the compound `COCCN1CCN(C(=O)Nc2ccc(Oc3ccnc(-c4cnn(C)c4)c3)c(C)n2)C1=O` [Example 18, 3-(2-methoxyethyl)-N-(6-methyl-5-((2-(1-methyl-1H-pyrazol-4-yl)pyridin-4-yl)oxy)pyridin-2-yl)-2-oxoimidazolidine-1-carboxamide], the tumor growth inhibition was 51%.
